Test results as given in patent publication US20240366539A1, “METHODS FOR TREATING AUTISM SPECTRUM DISORDERS” (INSTITUT NATIONAL DE LA SANTÉ ET DE LA RECHERCHE MÉDICALE, priority 2021, published 2024).

How the values were obtained:
Oprm1^−/− mice = assay: Novelty-suppressed feeding; assay type: in vivo, mouse
Method: Mice were treated with vehicle (NaCl 0.9%; ip, 10 or 20 ml/kg), NaBr (Sigma-Aldrich, Saint-Quentin Fallavier, France) administered either chronically (once a day, 10, 30, 70, 125, 250 and 500 mg/kg; i.p. or per os, in a volume of 20 ml/kg—except for combination with VU0155041: […]) or acutely (250 mg/kg, 20 ml/kg), KBr (Sigma-Aldrich, Saint-Quentin Fallavier, France; 145 mg/kg; i.p., 20 ml/kg), bumetanide (R&D systems, Minneapolis, USA, 0.5 and 2 mg/kg; i.p., 20 ml/kg) or VU0155041 (Cayman Chemicals, Ann Arbor, USA, once a day, i.p., 1 mg/kg, 10 ml/kg). […] When treatment was given chronically, behavioral testing started 8 days after beginning of daily administration. Treatment was maintained for 8 to 18 consecutive days (see timelines in FIGS. 1 and 4), allowing thorough behavioral phenotyping. On testing days, or when treatment was given acutely, drugs (or vehicle) were administered 30 min before behavioral assays.
Novelty-suppressed feeding. Novelty-suppressed feeding (NSF) was measured in 24-hr food-deprived mice, isolated in a standard housing cage for 30 min before individual testing. Three pellets of ordinary lab chow were placed on a white tissue in the center of each arena, lit at 60 lx. Each mouse was placed in a corner of an arena and allowed to explore for a maximum of 15 min. Latency to feed was measured as the time necessary to bite a food pellet. Immediately after an eating event, the mouse was transferred back to home cage (free from cage-mates) and allowed to feed on lab chow for 5 min. Food consumption in the home cage was measured.

rat mGlu4 receptor = target: T1, rat mGlu4 receptor (Rattus norvegicus, UniProt P31423); assay: Calcium mobilization assay, mGlu4 signaling under glutamate stimulation; assay type: cell-based
T1 construct: expressed in transfected cells
Method: Human embryonic kidney (HEK) 293 cells were transiently transfected with rat mGlu4 receptor by electroporation together with a chimeric Gi/Gq protein to allow phospholipase activation and EAAC1, a glutamate transporter, to avoid influence of extracellular glutamate. For calcium mobilization, cells were seeded in a PLO-coated, black-walled, clear-bottomed. 96-well plate (Greiner Bio-One) at the density of 100,000 cells per well and for IPOne assay in a PLO-coated black 96-well plate (Greiner Bio-One) at the density of 50,000 cells per well. Cells were cultured in DMEM (Gibco™, Life Technologies), supplemented with 10% fetal bovine serum. Medium was changed by GlutaMAX (Gibco™, Life Technologies) to reduce extracellular glutamate concentration 3 h before experiment.
Chloride and bromide ion concentrations in the buffers used for in vitro experiments were chosen for best matching physiological conditions. It was previously shown that the total amount of halogen (chloride and bromide ions) in the cerebrospinal fluid and serum can reach 120-130 mM (69, 70) and that bromide is able to substitute up to 30% of chloride concentration (71), leading to a theoretical concentration of 91 mM chloride and 36 mM bromide. We thus chose the dose of 100 mM chloride as physiological control (complemented with gluconate NaC6H11O7 to maintain equivalent osmolarity between buffers (56)), and added or not 50 mM chloride or bromide to assess their effects in vitro. Chemicals were purchased from Sigma-Aldrich (Merck, L'Isle D'Abeau Chesnes, France). The pH of all buffers was adjusted to 7.4 before experiments. […]
Calcium mobilization assay: 24 h after transfection, cells were loaded with 1 μM calcium-sensitive fluorescent dye (Fluo-4 AM; Invitrogen, Life Technologies) diluted in fresh C1^− buffer (154.6 mM) for 1 h at 37° C. and 5% CO2. […] Ca^2+ release was determined using μCell FDSS (Hamamatsu Photonics). Fluoresence was recorded for 60 s at 480 nm excitation and 540 nm emission after 20 s record of baseline.
Data were analyzed using Prism 6 software (GraphPad Software, San Diego, CA, USA). […] Statistical differences between pEC50, ΔpEC50 and Emax were determined using a one-way analysis of variance followed by Tukey's post-test.
We measured mGlu4 signaling under glutamate stimulation in HEK293T cells transiently expressing mGlu4 receptors and Gαqi9, a Gi/Gq chimeric G-protein (57) that allows mGlu4 to activate the phosphoinositide pathway. Receptor activation was then evaluated by measuring intracellular Ca^2+ release or inositol monophosphate (IP1, FIG. 5A). […]

T1 sequence (P31423 33-912): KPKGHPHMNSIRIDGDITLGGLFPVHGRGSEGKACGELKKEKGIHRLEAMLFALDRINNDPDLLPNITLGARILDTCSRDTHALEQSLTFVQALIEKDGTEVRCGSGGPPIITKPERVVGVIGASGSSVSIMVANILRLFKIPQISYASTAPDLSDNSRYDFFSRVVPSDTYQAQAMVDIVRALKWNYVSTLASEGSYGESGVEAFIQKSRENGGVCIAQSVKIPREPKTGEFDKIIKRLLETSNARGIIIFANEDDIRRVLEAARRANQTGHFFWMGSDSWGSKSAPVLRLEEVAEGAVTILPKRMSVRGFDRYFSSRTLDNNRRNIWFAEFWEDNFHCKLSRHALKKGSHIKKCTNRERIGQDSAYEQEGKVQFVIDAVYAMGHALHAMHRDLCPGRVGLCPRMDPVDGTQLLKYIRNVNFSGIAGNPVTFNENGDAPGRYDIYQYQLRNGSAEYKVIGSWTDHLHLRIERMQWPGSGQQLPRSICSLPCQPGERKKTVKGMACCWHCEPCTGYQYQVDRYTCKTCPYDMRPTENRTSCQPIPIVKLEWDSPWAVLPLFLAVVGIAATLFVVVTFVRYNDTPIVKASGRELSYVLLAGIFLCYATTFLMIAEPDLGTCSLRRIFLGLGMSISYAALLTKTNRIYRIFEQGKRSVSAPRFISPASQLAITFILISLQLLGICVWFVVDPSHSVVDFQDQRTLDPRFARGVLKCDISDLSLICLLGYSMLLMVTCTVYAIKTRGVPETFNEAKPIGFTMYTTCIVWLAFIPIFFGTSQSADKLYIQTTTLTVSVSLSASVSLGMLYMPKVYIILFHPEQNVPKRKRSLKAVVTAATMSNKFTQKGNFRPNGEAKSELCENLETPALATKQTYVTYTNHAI

[Br-].[Na+] [NaBr, sodium bromide]
latency to feed (Oprm1^−/− mice; Oprm1−/− mice, chronic NaBr 70 mg/kg): sufficient to normalize latency to feed
latency to eat (Oprm1^−/− mice; Oprm1−/− mice, chronic NaBr (since the lowest dose tested) or bumetanide): normalized eating latency
food intake (Oprm1^−/− mice; both mouse lines, chronic NaBr (since the lowest dose tested) or bumetanide): increased food intake in both mouse lines
increase in glutamate pEC50 (rat mGlu4 receptor; HEK293 cells, mGlu4 + Gαqi9, addition of 50 mM bromide versus physiological chloride (100 mM Cl− + 50 mM gluconate)): 0.73±0.05 log
ΔpEC50 of glutamate, bromide versus equivalent concentration of chloride (rat mGlu4 receptor; HEK293 cells, mGlu4 + Gαqi9, compared with +50 mM Cl−): 0.27±0.04
rise in maximal mGlu4-triggered calcium release (Emax) (rat mGlu4 receptor; HEK293 cells, mGlu4 + Gαqi9, glutamate, bromide versus physiological chloride): 65±9%
modulation of mGlu4 (PAM behaviour) (rat mGlu4 receptor; calcium mobilization assay, 100 mM Cl− + 50 mM Br−, broader effects than chloride ions on pEC50 and Emax): behave as PAM of mGlu4
